In brackets after ≈: the same amount, converted by molar mass.
Assays:
[1] = system: Mycobacterium tuberculosis; experiment: Non-covalent inhibition of DprE1 in PBTZ169-resistant Mycobacterium tuberculosis measured after 7 days by microplate Alamar blue assay; details: time 7.0 day
[2] = system: Mycobacterium tuberculosis; experiment: Non-covalent inhibition of DprE1 in bedaquiline-resistant Mycobacterium tuberculosis measured after 7 days by microplate Alamar blue assay; details: time 7.0 day

Compound	MIC [1] [µg/mL]	MIC [2] [µg/mL]
CCOC(=O)NC(=O)c1ccsc1NC(=O)c1ccc(C(=O)N2CCCCC2)cc1	0.14 (≈ 0.326 µM)	
CCOC(=O)NC(=O)c1ccsc1NC(=O)c1ccc(C(=O)N2CCCCC2)c(F)c1	0.062 (≈ 0.139 µM)	0.054 (≈ 0.121 µM)
COC(=O)NC(=O)c1ccsc1NC(=O)c1ccc(C(=O)N2CCCCC2)cc1	0.48 (≈ 1.16 µM)	

— ChEMBL document CHEMBL4831479, “Discovery of Novel Thiophene-arylamide Derivatives as DprE1 Inhibitors with Potent Antimycobacterial Activities” (J Med Chem, 2021)
